From publication PMC12767106, “In Situ Assembly of Transformable Monopeptide on Activated Neutrophils Attenuates NETs‐Induced Hepatocellular Carcinoma Metastasis by Disrupting NE Nuclear Translocation” (Advanced Science, 2025)

Legend:
[1] = system: mouse red blood cells (RBCs); assay: Hemolysis assay; format: cell-based; settings: 2% RBC suspension in PBS, 1 h, 37 °C, absorbance at 541 nm, triplicate
Protocol: Hemolysis Assay of FTP-NPs
To assess the hemolytic activity of FTP-NPs, red blood cells (RBCs) were harvested from C57BL/6 mice (aged 6–8 weeks, female). The mice were euthanized by cervical dislocation, and blood was collected via cardiac puncture into heparinized tubes. Blood was then immediately diluted with an equal volume of phosphate-buffered saline (PBS) and centrifuged at 1500 g for 10 minutes to isolate the RBCs. The supernatant was discarded, and the RBC pellet was washed three times with PBS to remove any residual plasma and other cellular components. The final RBC suspension was adjusted to a 2% hematocrit using PBS. FTP-NPs were synthesized as described previously. Briefly, FTP-NPs were prepared by self-assembly of peptidic […]
concentration was tested in triplicate. For the hemolysis assay, 200 μL of the 2% RBC suspension was incubated with 200 μL of FTP-NPs at the specified concentrations in a 96-well plate for 1 hour at 37°C under gentle shaking. […] The hemoglobin released into the supernatant was quantified by measuring the absorbance at 541 nm (A541) using a microplate reader. The percentage of hemolysis was calculated using the following formula: Hemolysis %= (Asample−ANC)/ (APC−ANC) *100%. Where Asample is the absorbance of the sample, ANC is the absorbance of the negative control, and APC is the absorbance of the positive control. […]

Hepa1-6 cells [2] = assay: Cell proliferation (CCK-8) with medium from treated neutrophils; format: cell-based, mouse; settings: CCK-8, medium from activated neutrophils treated with NPs; versus Control and NFTP-NPs groups
Protocol: Submitted to Advanced Science
Freshly isolated neutrophils were stimulated with PBS, PMA, PMA+NFTP-NPs, PMA+FTP-NPs, and PMA+NEi for 4 h to stimulate NETs formation. Cells were then centrifuged at 480g for 10 minutes. The supernatant (NETs rich media) was then centrifuged at 18000g for 15 mins to form a pellet. The obtained pellet contained the mixture of chromatins and proteins, which was then resuspended in cell culture media to treat cancer cells, which was collected and respectively named as resting neutrophils, Control, NFTP-NPs, FTP-NPs, and NEi, then stored at -80◦C for further use.
Resting neutrophils (Neu)-treated, Control (Neu+PMA)-treated, NFTP-NPs (Neu+PMA+NFTP-NPs)-treated, FTP-NPs (Neu+PMA+FTP-NPs)-treated, and NEi (Neu+PMA+NEi)-treated Hepa1-6/luc cells and Hepa1-6/luc cells (2×10^3cells/well) were seeded on 96-well plates. Cell proliferation was assessed using the Cell Counting Kit-8 (Biosharp, China) following the manufacturer’s instructions. The final optical density (OD) value was measured daily for 3 consecutive days using a microplate reader at 450 nm (Tecan Infinite M200, Switzerland). Each condition was performed in triplicate. […]

resting neutrophils = assay: CCK-8 cytotoxicity; format: cell-based, mouse; settings: CCK-8, 24 h, different dosages
Protocol: The supernatant was discarded, and the red blood cells were lysed with RBC lysate. The neutrophils were then washed with PBS again, and the supernatant was discarded. The cells were resuspended in culture medium and used for further experiments. […]
10 minutes to remove unbound particles, and the supernatant was collected. […]
In vitro cytotoxicity assay
The CCK-8 assay was used to assess the cell viability of Hepa1-6/luc, resting neutrophils, and activated neutrophils. Following the seeding of 1*10^4 cells per well on a 96-well plate, the cells were subjected to different dosages of FTP-NPs and NFTP-NPs (medium: DMSO = 99:1 v/v). After 24 hours, the cells were incubated for two hours with 10 µL of CCK-8 solution. Finally, a microplate reader (Tecan Infinite M200, Switzerland) was used to measure cell viability based on the absorbance values.
Targeting the capability of NEBP
To evaluate the targeting capability of NE-binding peptide (NEBP), the harvested resting neutrophils and […]

Hepa1-6 cells [3] = assay: Transwell migration and Matrigel invasion assay; format: cell-based, mouse
Protocol: Cell migration and invasion assay […]
Cell migration was monitored during the overnight culture of the cells. Hepa1-6/luc cells (5×10^5cells/well) were placed in the upper chamber of an 8µm transwell system and incubated in serum-free DMEM, while various treated media with 20% FBS were added to the lower chamber of 24-well plates. After incubation for 48 h, the transmembrane cells were washed, fixed with 4% paraformaldehyde, stained with crystal violet, and observed under a microscope (Axiovert 200, Zeiss, Germany). All the experiments were performed thrice. The Transwell invasion assay was performed using a similar procedure. Hepa1-6/luc cells (1×10^6cells/well) were seeded in the upper chamber of an 8µm transwell system coated with Matrigel (356231, Corning, New York, USA) and incubated in serum-free DMEM. The remaining operations were performed according to the steps of the migration assay. All the experiments were performed thrice.
Matrigel tube formation assay
Murine C166 endothelial cells (3×10^4cells/well) were placed on 96-well plates coated with Matrigel (356231, Corning, New York, USA) and incubated with various treatments. […]
In vitro permeability assays and trans-endothelial invasion assays […]

## PpIX-GFFVLK-EAIPMSIPPEVK [FTP-NPs]
[1]
  maximum observed hemolysis rate: approximately 0.9%
Hepa1-6 cells [2]
  proliferation rate of Hepa1-6 cells: much lower
Resting neutrophils
  survival rate: over 95%
Hepa1-6 cells [3]; Matrigel-coated transwell, versus Control and NFTP-NPs groups
  number of invasive cells: significantly lower
Hepa1-6 cells [3]; transwell, 48 h, versus other control groups
  number of migrating cells: significantly reduced
